Results taken from publication PMC4006925, “Squalene Synthase As a Target for Chagas Disease Therapeutics” (PLoS Pathogens, 2014).

Tests used:
Vero cells = test: Vero (host) cell proliferation, alamarBlue; format: cell-based; details: Chlorocebus sabaeus, Vero, read-out: IC50 Vero cells (host cell growth)
Procedure: Vero cells (1.7×10^4 cells/well) were seeded in 96 well plates (black, clear bottom from Greiner Bio-One Cat#655090) in 100 µL RPMI media (Sigma Cat# R-4130) with 10% FBS. Plates were tested as described by Recher et al.

T. cruzi = test: Rescue from T. cruzi cell growth inhibition by farnesol or geranylgeraniol; format: cell-based, Trypanosoma cruzi
T. cruzi epimastigotes [1] = test: Sterol composition of T. cruzi epimastigotes, GC-MS; format: cell-based, Trypanosoma cruzi; details: 4 µM compound
Procedure: . Cells from cultures (96 h incubation) were washed with Buffer A with glucose (116 mM NaCl, 5.4 mM KCl, 0.8 mM MgSO4, 5.5 mM D-glucose, and 50 mM HEPES at pH 7.0) then pelleted and chloroform/methanol (2∶1 v/v) added (∼30 mL of solvent per gram of wet cells) followed by vigorous stirring and overnight incubation at 4°C. The extract was then filtered using Whatman #2 paper to eliminate insoluble material, and the filtrate (a single phase) dried under nitrogen. The extract was then re-extracted using chloroform/methanol 9/1 v/v, dried under nitrogen, dissolved in 1 mL of pure chloroform and re-dried under nitrogen gas. The extracted lipids were saponified with 5 mL of ethanolic-potassium hydroxide (5 g KOH, 7 mL water, 14 mL ethanol) for 1 hour at 80°C. After cooling, 2.5 mL of water and 1.5 mL hexane were added and the phases allowed to separate. […] Samples were analyzed on a 30 m DB5 column with 0.32 mm I.D. and 0.25 µm film thickness (Agilent Inc, Palo Alto, CA, USA) with an injection port temperature of 300°C, the interface was set to 300°C, the ion source adjusted to 230°C, MS Quadrupole 150°C. […] The spectra of all chromatogram peaks were evaluated by using the HP Chemstation (Agilent, Palo Alto, CA, USA) program. Identifications and quantifications were performed using mass spectra obtained from authentic standards and with NIST08 and W8N08 libraries (John Wiley & Sons, Inc., USA).

T. cruzi epimastigotes [2] = test: UQ9 biosynthesis in epimastigotes, LC-MS; format: cell-based, Trypanosoma cruzi
Procedure: For ubiquinone extraction, epimastigotes (1 g wet weight) were washed twice with buffer A with glucose (116 mM NaCl, 5.4 mM KCl, 0.8 mM MgSO4, 5.5 mM D-glucose, and 50 mM HEPES at pH 7.0). To break the cells, the pellets were frozen in a dry ice-100% ethanol bath (for 7 min) and thawed at 37°C (for 3 min) for a total of 5 times. One volume of water and three volumes of 1-propanol were added to the pellet. The samples were vortexed for 30 sec at room temperature and allowed to stand for one minute. Two volumes of n-hexane were added, the mixture vortexed for 30 sec at room temperature, then centrifuged at 12,000× g for 5 min. The upper phase, containing ubiquinone, was collected into a glass tube, and dried under nitrogen gas, then analyzed using LC-MS.
LC/MS was performed using an Agilent LC/MSD Trap XCT Plus system (Agilent Technologies, Santa Clara, CA) with an 1100 series HPLC system including a degasser, an auto-sampler, a binary pump, and a multiple-wavelength detector. The LC separation used a Phenomenex Gemini 3u C18 110A column (2 mm×100 mm) (Torrence, CA) with mobile phase A (0.1% formic acid in water) and mobile phase B (0.1% formic acid in acetonitrile). The flow-rate was 0.25 mL/min. The linear gradient was as follows: 0–1 min, 100% A; 7–50 min, 0% A; 51–56 min, 100% A. The auto-sampler was set at 5°C and the injection volume was 15 µL. UV signals were recorded at 275 nm. […]

CCCCCCCCCC[n+]1ccn(CC(P(=O)([O-])O)P(=O)(O)O)c1 (stereo not drawn) [BPH-1218]
IC50 (Vero cells): ~1000 µM | rescue afforded by farnesol (T. cruzi): no “rescue” | rescue by geranylgeraniol (T. cruzi; geranylgeraniol at 40 µM): ~20% | endogenous ergosterol and the three major ergosterol related sterols, % of total sterols (T. cruzi epimastigotes [1]; without compound 36%): 15% | content of exogeneously-acquired cholesterol, % of total sterols (T. cruzi epimastigotes [1]; without compound 51%): 71% | decrease in UQ9 biosynthesis (T. cruzi epimastigotes [2]): ~40%
